Drawing on PubChem BioAssay AID1259407 (Chemical Carcinogenesis Research Information System (CCRIS), 2018), this text covers mutagenic call for seven compounds.

Calls of active or inactive are those of the source. How the calls were made is not given here.

The data set has as its system CCRIS mutagenicity, Ames/micronucleus/aberration tests. The data set can be described thus: CCRIS mutagenicity studies.
The mark [1] stands for this setting: Test System: AMES SALMONELLA TYPHIMURIUM, Strain/Indicator: TA98, Metabolic Activation: NONE, Method: STANDARD PLATE.
Setting [2] is: Test System: AMES SALMONELLA TYPHIMURIUM, Strain/Indicator: TA100, Metabolic Activation: NONE, Method: STANDARD PLATE.

For `c1ccc2c(c1)c1cccc3ccc4cccc2c4c31`, the mutagenic call runs as follows: (End Point: IN VITRO MICRONUCLEUS, Test System: CHINESE HAMSTER V79 CELLS, Metabolic Activation: S-9) “active; positive”; (Test System: AMES SALMONELLA TYPHIMURIUM, Strain/Indicator: TA97, Metabolic Activation: NONE, Method: STANDARD PLATE) “inactive; negative”; (Test System: AMES SALMONELLA TYPHIMURIUM, Strain/Indicator: TA97, Metabolic Activation: RAT, LIVER, S-9, PCB, Method: STANDARD PLATE) “active; positive”; under setting [1], “inactive; negative”; (Test System: AMES SALMONELLA TYPHIMURIUM, Strain/Indicator: TA98, Metabolic Activation: RAT, LIVER, S-9, AROCLOR 1254, Method: STANDARD PLATE) “active; positive”; (Test System: AMES SALMONELLA TYPHIMURIUM, Strain/Indicator: TA98, Metabolic Activation: RAT, LIVER, S-9, PCB, Method: STANDARD PLATE) “active; positive”. Also, the mutagenic call is “inactive; negative” (Test System: AMES SALMONELLA TYPHIMURIUM, Strain/Indicator: TA100, Metabolic Activation: MOUSE, LIVER, MICROSOMES, BENZO[E]PYRENE AND TCDD, Method: STANDARD PLATE); “inactive; negative” under setting [2]; “active; positive” (Test System: AMES SALMONELLA TYPHIMURIUM, Strain/Indicator: TA100, Metabolic Activation: RAT, LIVER, S-9, AROCLOR 1254, Method: STANDARD PLATE); “active; positive” (Test System: AMES SALMONELLA TYPHIMURIUM, Strain/Indicator: TA100, Metabolic Activation: RAT, LIVER, S-9, PCB, Method: STANDARD PLATE); “inactive; negative” (Test System: E. COLI, Strain/Indicator: WP2 UVRA, Metabolic Activation: HAMSTER, LIVER, S-9, AROCLOR 1254, Method: STANDARD PLATE); “inactive; negative” (Test System: E. COLI, Strain/Indicator: WP2 UVRA, Metabolic Activation: HAMSTER, LIVER, S-9, Method: STANDARD PLATE). The mutagenic call reads like this: (Test System: E. COLI, Strain/Indicator: WP2 UVRA, Metabolic Activation: MOUSE, LIVER, S-9, AROCLOR 1254, Method: STANDARD PLATE) “inactive; negative”; (Test System: E. COLI, Strain/Indicator: WP2 UVRA, Metabolic Activation: MOUSE, LIVER, S-9, Method: STANDARD PLATE) “inactive; negative”; (Test System: E. COLI, Strain/Indicator: WP2 UVRA, Metabolic Activation: NONE, Method: STANDARD PLATE) “inactive; negative”; (Test System: E. COLI, Strain/Indicator: WP2 UVRA, Metabolic Activation: RAT, LIVER, S-9, AROCLOR 1254, Method: STANDARD PLATE) “inactive; negative”; (Test System: E. COLI, Strain/Indicator: WP2 UVRA, Metabolic Activation: RAT, LIVER, S-9, Method: STANDARD PLATE) “inactive; negative”; (Test System: MOUSE LYMPHOMA, Strain/Indicator: L5178Y (TK+/TK-), Metabolic Activation: NONE, Method: SUSPENSION/PLATE) “inactive; negative”. For the same compound, the mutagenic call was “active; positive” (Test System: MOUSE LYMPHOMA, Strain/Indicator: L5178Y (TK+/TK-), Metabolic Activation: RAT, LIVER, S-9, AROCLOR 1254, Method: SUSPENSION/PLATE); “inactive; negative” (Test System: MOUSE LYMPHOMA, Strain/Indicator: L5178Y (TK+/TK-), Metabolic Activation: RAT, LIVER, S-9, Method: SUSPENSION/PLATE); “active; positive” (Test System: UDS HUMAN CELLS, Strain/Indicator: THY INCORP (NON-S-PHASE), Metabolic Activation: RAT, LIVER, S-9, 3-METHYLCHOLANTHRENE, Method: LIQUID SCINTILLATION COUNTING).
Consider `CCC(=O)NCc1ccccc1`, for which the mutagenic call under setting [2] is “inactive; negative”.
`O=[N+]([O-])c1c(-c2ccc(Cl)cc2)nc2sccn12`: the mutagenic call is “active; positive” under setting [1]; “inactive; negative” under setting [2]; “inactive; negative” (Test System: AMES SALMONELLA TYPHIMURIUM, Strain/Indicator: TA1535, Metabolic Activation: NONE, Method: STANDARD PLATE); “active; positive” (Test System: AMES SALMONELLA TYPHIMURIUM, Strain/Indicator: TA1537, Metabolic Activation: NONE, Method: STANDARD PLATE); “active; positive” (Test System: AMES SALMONELLA TYPHIMURIUM, Strain/Indicator: TA1538, Metabolic Activation: NONE, Method: STANDARD PLATE).
Turning to `CC(C)c1ccc(/C=C/c2ccc(N)cc2)cc1`, the mutagenic call is “inactive; negative” under setting [1]; “active; positive” (Test System: AMES SALMONELLA TYPHIMURIUM, Strain/Indicator: TA98, Metabolic Activation: RAT, LIVER, S9, AROCLOR, Method: STANDARD PLATE); “inactive; negative” under setting [2]; “active; positive” (Test System: AMES SALMONELLA TYPHIMURIUM, Strain/Indicator: TA100, Metabolic Activation: RAT, LIVER, S9, AROCLOR, Method: STANDARD PLATE).
As to `Cc1c2c(c(C)c3ccccc13)-c1cccc3cccc-2c13`, for the setting “Test System: AMES SALMONELLA TYPHIMURIUM, Strain/Indicator: TA100, Metabolic Activation: RAT, LIVER, S-9, AROCLOR 1254”, the mutagenic call was “active; positive”.
Take `O=[C]/C=C\C(=O)CC(=O)CC(=O)O`: the mutagenic call (Test System: CHINESE HAMSTER V-79, Strain/Indicator: V-79 (HGPRT)/6-THIOGUANINE, Metabolic Activation: NONE) was “inactive; negative”.
Consider `CCCCCCCCCCCCCCCCCCN`, for which the mutagenic call runs as follows: (Test System: AMES SALMONELLA TYPHIMURIUM, Strain/Indicator: TA97, Metabolic Activation: HAMSTER, LIVER, S-9, AROCLOR 1254 (10 OR 30%), Method: PREINCUBATION) “inactive; negative”; (Test System: AMES SALMONELLA TYPHIMURIUM, Strain/Indicator: TA97, Metabolic Activation: NONE, Method: PREINCUBATION) “inactive; negative”; (Test System: AMES SALMONELLA TYPHIMURIUM, Strain/Indicator: TA97, Metabolic Activation: RAT, LIVER, S-9, AROCLOR 1254 (10 OR 30%), Method: PREINCUBATION) “inactive; negative”; (Test System: AMES SALMONELLA TYPHIMURIUM, Strain/Indicator: TA98, Metabolic Activation: HAMSTER, LIVER, S-9, AROCLOR 1254 (10 OR 30%), Method: PREINCUBATION) “inactive; negative”; (Test System: AMES SALMONELLA TYPHIMURIUM, Strain/Indicator: TA98, Metabolic Activation: NONE, Method: PREINCUBATION) “inactive; negative”; (Test System: AMES SALMONELLA TYPHIMURIUM, Strain/Indicator: TA98, Metabolic Activation: RAT LIVER S-9, PHENOBARBITAL AND BETA-NAPHTHOFLAVONE, Method: PREINCUBATION) “inactive; negative”. Further, the mutagenic call by setting is: (Test System: AMES SALMONELLA TYPHIMURIUM, Strain/Indicator: TA98, Metabolic Activation: RAT, LIVER, S-9, AROCLOR 1254 (10 OR 30%), Method: PREINCUBATION) “inactive; negative”; (Test System: AMES SALMONELLA TYPHIMURIUM, Strain/Indicator: TA100, Metabolic Activation: HAMSTER, LIVER, S-9, AROCLOR 1254 (10 OR 30%), Method: PREINCUBATION) “inactive; negative”; (Test System: AMES SALMONELLA TYPHIMURIUM, Strain/Indicator: TA100, Metabolic Activation: NONE, Method: PREINCUBATION) “inactive; negative”; (Test System: AMES SALMONELLA TYPHIMURIUM, Strain/Indicator: TA100, Metabolic Activation: RAT LIVER S-9, PHENOBARBITAL AND BETA-NAPHTHOFLAVONE, Method: PREINCUBATION) “inactive; negative”; (Test System: AMES SALMONELLA TYPHIMURIUM, Strain/Indicator: TA100, Metabolic Activation: RAT, LIVER, S-9, AROCLOR 1254 (10 OR 30%), Method: PREINCUBATION) “inactive; negative”; (Test System: AMES SALMONELLA TYPHIMURIUM, Strain/Indicator: TA1535, Metabolic Activation: HAMSTER, LIVER, S-9, AROCLOR 1254 (10 OR 30%), Method: PREINCUBATION) “inactive; negative”. Besides, the mutagenic call is “inactive; negative” (Test System: AMES SALMONELLA TYPHIMURIUM, Strain/Indicator: TA1535, Metabolic Activation: NONE, Method: PREINCUBATION); “inactive; negative” (Test System: AMES SALMONELLA TYPHIMURIUM, Strain/Indicator: TA1535, Metabolic Activation: RAT LIVER S-9, PHENOBARBITAL AND BETA-NAPHTHOFLAVONE, Method: PREINCUBATION); “inactive; negative” (Test System: AMES SALMONELLA TYPHIMURIUM, Strain/Indicator: TA1535, Metabolic Activation: RAT, LIVER, S-9, AROCLOR 1254 (10 OR 30%), Method: PREINCUBATION); “inactive; negative” (Test System: AMES SALMONELLA TYPHIMURIUM, Strain/Indicator: TA1537, Metabolic Activation: NONE, Method: PREINCUBATION); “inactive; negative” (Test System: AMES SALMONELLA TYPHIMURIUM, Strain/Indicator: TA1537, Metabolic Activation: RAT LIVER S-9, PHENOBARBITAL AND BETA-NAPHTHOFLAVONE, Method: PREINCUBATION); “inactive; negative” (Test System: E.COLI, Strain/Indicator: WP2UVRA/PKM101, Metabolic Activation: NONE, Method: PREINCUBATION). Further, the mutagenic call (Test System: E.COLI, Strain/Indicator: WP2UVRA/PKM101, Metabolic Activation: RAT LIVER S-9, PHENOBARBITAL AND BETA-NAPHTHOFLAVONE, Method: PREINCUBATION) was “inactive; negative”.
